From patent publication US9255096B1, “Substituted 1,2,3,4-tetrahydrobenzo[C][2,7] naphthyridines and derivatives thereof as kinase inhibitors” (Allergan, Inc., priority 2014, dated 2016)

How the values were obtained:
VEGFR2 [1] = biological target: T1, VEGFR2 (Homo sapiens (Human), UniProt P35968); experiment: VEGFR2 Kinase Assay (enzyme); format: biochemical; conditions: purified cytoplasmic domain KDR protein, 2.7 μM ATP
Procedure: VEGFR2 Kinase Assay: Biochemical KDR kinase assays were performed in 96 well microtiter plates that were coated overnight with 75 μg/well of poly-Glu-[…]:1) in 10 mM Phosphate Buffered Saline (PBS), pH 7.4. The coated plates were washed with 2 mls per well PBS+0.05% Tween-20 (PBS-T), blocked by incubation with PBS containing 1% BSA, then washed with 2 mls per well PBS-T prior to starting the reaction. Reactions were carried out in 100 μL reaction volumes containing 2.7 μM ATP in kinase buffer (50 mM Hepes buffer pH 7.4, 20 mM MgCl2, 0.1 mM MnCl2 and 0.2 mM Na3VO4). Test compounds were reconstituted in 100% DMSO and added to the reaction to give a final DMSO concentration of 5%. Reactions were initiated by the addition 20 ul per well of kinase buffer containing 200-300 ng purified cytoplasmic domain KDR protein (BPS Bioscience, San Diego, Calif.). Following a 15 minute incubation at 30° C., the reactions were washed 2 mls per well PBS-T. 100 μl of a monoclonal anti-phosphotyrosine antibody-peroxidase conjugate diluted 1:10,000 in PBS-T was added to the wells for 30 minutes. Following a 2 mls per well wash with PBS-Tween-20, 100 μl of 0-Phenylenediamine Dihydrochloride in phosphate-citrate buffer, containing urea hydrogen peroxide, was added to the wells for 7-10 minutes as a colorimetric substrate for the peroxidase. The reaction was terminated by the addition of 100 μl of 2.5N H2SO4 to each well and read using a microplate ELISA reader set at 492 nm. IC50 values for compound inhibition were calculated directly from graphs of optical density (arbitrary units) versus compound concentration following subtraction of blank values.
Target sequence in this assay (P35968 786-1356): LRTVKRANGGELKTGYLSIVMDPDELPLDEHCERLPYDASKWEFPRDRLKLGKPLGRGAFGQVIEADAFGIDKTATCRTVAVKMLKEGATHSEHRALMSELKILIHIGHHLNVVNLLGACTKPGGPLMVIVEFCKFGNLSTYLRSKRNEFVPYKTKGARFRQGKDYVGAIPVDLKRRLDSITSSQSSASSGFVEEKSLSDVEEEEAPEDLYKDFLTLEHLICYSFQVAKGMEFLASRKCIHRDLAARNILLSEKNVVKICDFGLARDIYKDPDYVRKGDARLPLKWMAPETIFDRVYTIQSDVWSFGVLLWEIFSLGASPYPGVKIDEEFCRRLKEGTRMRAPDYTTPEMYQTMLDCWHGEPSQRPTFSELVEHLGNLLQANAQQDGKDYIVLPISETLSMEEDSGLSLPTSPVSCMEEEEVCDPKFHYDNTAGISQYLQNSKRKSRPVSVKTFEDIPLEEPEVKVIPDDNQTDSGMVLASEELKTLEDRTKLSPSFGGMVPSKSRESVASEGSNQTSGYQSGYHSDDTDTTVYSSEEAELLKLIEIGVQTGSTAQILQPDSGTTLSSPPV

VEGFR2 [2] = biological target: T1, VEGFR2; experiment: VEGFR2 Cellular Assay; format: cell-based
Target sequence in this assay (P35968 20-1356, species assumed): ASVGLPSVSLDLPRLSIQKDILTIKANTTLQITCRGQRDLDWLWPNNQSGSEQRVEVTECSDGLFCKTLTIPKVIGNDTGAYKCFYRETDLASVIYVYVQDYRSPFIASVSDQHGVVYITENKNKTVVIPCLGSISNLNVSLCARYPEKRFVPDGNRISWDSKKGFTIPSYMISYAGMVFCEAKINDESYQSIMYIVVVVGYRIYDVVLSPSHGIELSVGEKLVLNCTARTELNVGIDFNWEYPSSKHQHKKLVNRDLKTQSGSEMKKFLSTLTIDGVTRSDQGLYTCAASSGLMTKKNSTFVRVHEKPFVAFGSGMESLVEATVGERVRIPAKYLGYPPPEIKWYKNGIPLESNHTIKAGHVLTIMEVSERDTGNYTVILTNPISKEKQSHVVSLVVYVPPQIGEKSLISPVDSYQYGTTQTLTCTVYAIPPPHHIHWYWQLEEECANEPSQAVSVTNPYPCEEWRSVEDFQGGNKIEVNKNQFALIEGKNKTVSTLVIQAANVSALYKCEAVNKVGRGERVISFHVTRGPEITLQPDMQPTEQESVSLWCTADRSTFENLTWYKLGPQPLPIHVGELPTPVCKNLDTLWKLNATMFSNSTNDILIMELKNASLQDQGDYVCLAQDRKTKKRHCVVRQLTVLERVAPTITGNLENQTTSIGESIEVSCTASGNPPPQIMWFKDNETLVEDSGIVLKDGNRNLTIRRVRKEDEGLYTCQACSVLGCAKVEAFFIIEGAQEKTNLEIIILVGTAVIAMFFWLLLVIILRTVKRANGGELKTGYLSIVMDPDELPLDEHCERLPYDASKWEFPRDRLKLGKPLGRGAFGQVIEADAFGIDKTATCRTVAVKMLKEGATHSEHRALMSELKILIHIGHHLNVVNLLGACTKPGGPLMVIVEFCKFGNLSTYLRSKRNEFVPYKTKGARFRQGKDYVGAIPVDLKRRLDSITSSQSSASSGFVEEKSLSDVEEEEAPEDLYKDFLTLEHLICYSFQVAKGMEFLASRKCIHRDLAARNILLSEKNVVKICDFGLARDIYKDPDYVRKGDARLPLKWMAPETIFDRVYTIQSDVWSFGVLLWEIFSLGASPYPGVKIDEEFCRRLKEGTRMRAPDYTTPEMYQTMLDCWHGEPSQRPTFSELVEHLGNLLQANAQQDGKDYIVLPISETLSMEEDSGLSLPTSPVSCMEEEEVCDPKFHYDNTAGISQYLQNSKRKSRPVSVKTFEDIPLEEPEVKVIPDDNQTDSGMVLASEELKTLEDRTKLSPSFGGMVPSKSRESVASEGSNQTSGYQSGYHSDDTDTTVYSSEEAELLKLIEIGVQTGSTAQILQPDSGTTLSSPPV

PDGFRβ [3] = biological target: T2, PDGFRβ (Homo sapiens (Human), UniProt P09619); experiment: PDGFRβ Kinase Assay (enzyme); format: biochemical; conditions: purified cytoplasmic domain PDGFR-b protein, 36 μM ATP
Procedure: Biochemical PDGFRβ kinase assays were performed in 96 well microtiter plates that were coated overnight with 75 μg of poly-Glu-Tyr (4:1) in 10 mM Phosphate Buffered Saline (PBS), pH 7.4. The coated plates were washed with 2 mls per well PBS+0.05% Tween-20 (PBS-T), blocked by incubation with PBS containing 1% BSA, then washed with 2 mls per well PBS-T prior to starting the reaction. Reactions were carried out in 100 μL reaction volumes containing 36 μM ATP in kinase buffer (50 mM Hepes buffer pH 7.4, 20 mM MgCl2, 0.1 mM MnCl2 and 0.2 mM Na3VO4). Test compounds were reconstituted in 100% DMSO and added to the reaction to give a final DMSO concentration of 5%. Reactions were initiated by the addition 20 ul per well of kinase buffer containing 200-300 ng purified cytoplasmic domain PDGFR-b protein (Millipore). Following a 60 minute incubation at 30° C., the reactions were washed 2 mls per well PBS-T. 100 μl of a monoclonal anti-phosphotyrosine antibody-peroxidase conjugate diluted 1:10,000 in PBS-T was added to the wells for 30 minutes. Following a 2 mls per well wash with PBS-Tween-20, 100 μl of 0-Phenylenediamine Dihydrochloride in phosphate-citrate buffer, containing urea hydrogen peroxide, was added to the wells for 7-10 minutes as a colorimetric substrate for the peroxidase. The reaction was terminated by the addition of 100 μl of 2.5N H2SO4 to each well and read using a microplate ELISA reader set at 492 nm. IC50 values for compound inhibition were calculated directly from graphs of optical density (arbitrary units) versus compound concentration following subtraction of blank values.
Target sequence in this assay (P09619 554-1106): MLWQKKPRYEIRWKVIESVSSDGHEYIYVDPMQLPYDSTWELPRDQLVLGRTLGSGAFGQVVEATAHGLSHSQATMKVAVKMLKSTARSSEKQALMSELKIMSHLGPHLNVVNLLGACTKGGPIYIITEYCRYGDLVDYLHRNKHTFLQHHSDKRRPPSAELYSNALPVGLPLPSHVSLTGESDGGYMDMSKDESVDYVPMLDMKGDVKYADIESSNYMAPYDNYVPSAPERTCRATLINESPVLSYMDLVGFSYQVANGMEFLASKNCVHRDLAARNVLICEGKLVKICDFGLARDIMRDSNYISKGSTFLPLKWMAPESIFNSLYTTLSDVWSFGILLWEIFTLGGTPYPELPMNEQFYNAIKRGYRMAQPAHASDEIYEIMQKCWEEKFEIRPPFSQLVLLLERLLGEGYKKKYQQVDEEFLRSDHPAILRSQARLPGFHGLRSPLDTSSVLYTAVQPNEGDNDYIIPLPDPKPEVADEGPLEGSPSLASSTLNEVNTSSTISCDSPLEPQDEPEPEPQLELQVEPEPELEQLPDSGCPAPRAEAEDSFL

PDGFRβ [4] = biological target: T2, PDGFRβ; experiment: PDGFRβ Cellular Assay; format: cell-based
Target sequence in this assay (P09619 33-1106, species assumed): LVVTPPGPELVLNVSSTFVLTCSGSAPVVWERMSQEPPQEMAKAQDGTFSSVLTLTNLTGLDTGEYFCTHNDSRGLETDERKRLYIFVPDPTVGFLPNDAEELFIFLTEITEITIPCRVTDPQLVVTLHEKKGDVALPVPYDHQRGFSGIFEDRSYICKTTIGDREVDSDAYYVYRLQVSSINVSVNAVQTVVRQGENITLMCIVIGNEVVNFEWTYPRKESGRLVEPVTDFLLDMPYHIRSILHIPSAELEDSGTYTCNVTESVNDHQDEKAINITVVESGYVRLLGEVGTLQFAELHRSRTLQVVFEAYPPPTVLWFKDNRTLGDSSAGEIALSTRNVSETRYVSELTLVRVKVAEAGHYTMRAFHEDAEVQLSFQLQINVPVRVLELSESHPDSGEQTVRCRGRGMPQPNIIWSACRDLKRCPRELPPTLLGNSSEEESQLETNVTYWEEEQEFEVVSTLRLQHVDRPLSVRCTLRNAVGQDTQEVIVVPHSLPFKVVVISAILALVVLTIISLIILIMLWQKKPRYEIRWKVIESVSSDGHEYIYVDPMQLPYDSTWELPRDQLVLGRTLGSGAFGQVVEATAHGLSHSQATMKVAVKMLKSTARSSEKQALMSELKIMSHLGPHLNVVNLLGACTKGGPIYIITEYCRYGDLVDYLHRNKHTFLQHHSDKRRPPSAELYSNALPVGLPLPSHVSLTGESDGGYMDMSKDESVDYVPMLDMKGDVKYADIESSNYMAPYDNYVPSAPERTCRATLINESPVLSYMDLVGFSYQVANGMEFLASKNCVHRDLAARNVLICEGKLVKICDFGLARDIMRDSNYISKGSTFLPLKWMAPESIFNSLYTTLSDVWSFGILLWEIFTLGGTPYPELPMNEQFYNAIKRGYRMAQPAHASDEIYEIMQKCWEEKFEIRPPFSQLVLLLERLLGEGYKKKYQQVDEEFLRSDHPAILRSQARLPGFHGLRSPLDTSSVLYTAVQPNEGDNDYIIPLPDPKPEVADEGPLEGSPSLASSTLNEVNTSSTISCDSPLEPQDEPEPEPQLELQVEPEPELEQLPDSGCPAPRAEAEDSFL

IC50 (VEGFR2 [1]) | IC50 (VEGFR2 [2]) | IC50 (PDGFRβ [3]) | IC50 (PDGFRβ [4]) | Compound
5 nM | 12 nM | 7 nM |  | CCc1cccc(NC(=O)c2cccc(N3CCc4c(cnc5ccsc45)C3)c2)c1 [Example 14, 3-(8,9-dihydrothieno[3,2-c]-2,7-naphthyridin-7(6H)-yl)-N-(3-ethylphenyl)benzamide]
7 nM | 30 nM | 15 nM | 200 nM | CC(C)c1cccc(NC(=O)c2cccc(N3CCc4c(cnc5ccccc45)C3)c2)c1 [Example 5, 3-(1,4-dihydrobenzo[c]-2,7-naphthyridin-3(2H)-yl)-N-(3-isopropylphenyl)benzamide]
10 nM | 46 nM | 14 nM | 103 nM | O=C(Nc1cccc(C(F)(F)F)c1)c1cccc(N2CCc3c(cnc4ccccc34)C2)c1 [Example 7, 3-(1,4-dihydrobenzo[c]-2,7-naphthyridin-3(2H)-yl)-N-[3-(trifluoromethyl)phenyl]benzamide]
6 nM | 19 nM | 10 nM | 58 nM | CCc1cccc(NC(=O)c2cccc(N3CCc4c(cnc5ccccc45)C3)c2)c1 [Example 4, 3-(1,4-dihydrobenzo[c]-2,7-naphthyridin-3(2H)-yl)-N-(3-ethylphenyl)benzamide]
9 nM | 20 nM | 18 nM |  | COc1cc2ncc3c(c2cc1OC)CCN(c1cccc(C(=O)Nc2ccc(C(C)C)cc2)c1)C3 [Example 11, 3-(8,9-dimethoxy-1,4-dihydrobenzo[c]-2,7-naphthyridin-3(2H)-yl)-N-(4-isopropylphenyl)benzamide]
8 nM | 71 nM | 16 nM |  | CC(C)c1ccc(NC(=O)c2cccc(N3CCc4c(cnc5ccccc45)C3)c2)cc1 [Example 6, 3-(1,4-dihydrobenzo[c]-2,7-naphthyridin-3(2H)-yl)-N-(4-isopropylphenyl)benzamide]
7 nM | 23 nM | 16 nM |  | Cc1cccc(NC(=O)c2cccc(N3CCc4c(cnc5ccccc45)C3)c2)c1 [Example 3, 3-(1,4-dihydrobenzo[c]-2,7-naphthyridin-3(2H)-yl)-N-(3-methylphenyl)benzamide]
7 nM |  | 11 nM |  | COc1cc2ncc3c(c2cc1OC)CCN(c1cccc(C(=O)Nc2cccc(C(C)C)c2)c1)C3 [Example 10, 3-(8,9-dimethoxy-1,4-dihydrobenzo[c]-2,7-naphthyridin-3(2H)-yl)-N-(3-isopropylphenyl)benzamide]
